Data taken from US11273153B2, “MAPK inhibitors” (EverBrilliant Pharma Pty Ltd, priority 2014, dated 2022).
Values joined by “and” are separate entries in the source; they are usually repeats but may differ in a detail not shown here. Identical values can stand only once. Like-named read-outs stand apart in the source and are kept apart here.

What was measured:
[1] = In vitro metabolic stability, rat liver microsomes; type: in vitro ADME
Procedure: (§1) The metabolic stability of compounds 4.1 and 4.5 was assayed in an in vitro assay which employed liver microsomes. Liver microsomes are valuable models for the determination of hepatic clearance because they contain a number of drug metabolising enzymes, such as the CYP450 enzymes. An in vitro metabolic stability study was conducted using human, rat and mouse liver microsomes as a prediction of the in vivo metabolic clearance. […] From the results, the rates of apparent compound degradation in human, rat and mouse liver microsomes were in agreement with the moderate to high microsome-predicted extraction ratios (EH) for both compounds 4.1 and 4.5.

[2] = Acute toxicity study in rats; type: in vivo, male Sprague-Dawley (SD) rats; conditions: two weeks
Procedure: (§2) An acute toxicity study of compound 4.5 was carried out. In this toxicity study, four male Sprague-Dawley (SD) rats received 150 mg/kg of compound 4.5 twice daily by oral gavage over a period of two weeks. The control group consisting of four male SD rats received 1% carboxymethylcellulose (CMC) in water. Blood samples were collected for analysis at 1 and 12 hours after the first dose and at the 7 and 14 day troughs. The rats were then sacrificed and organs collected for analysis. Individual body weights were measured at day −1, 2, 4, 7, 10 and 14. FIG. 7 indicates the blood results from an acute toxicity study for 4.5.
(§3) The full blood, haemoglobin, haemocrit, red cell count, mean corpuscular haemoglobin, mean corpuscular volume, red cell distribution width, mean corpuscular haemoglobin concentration and liver function were all assessed. […] The CDCO analysed blood samples using HPLC-MS to determine the concentrations of compound 4.5 in rat plasma at different time points (Table 3).

[3] = In vitro metabolic stability, human liver microsomes; type: in vitro ADME
Procedure: as §1

[4] = Plasma concentrations in the acute toxicity study (HPLC-MS); type: in vivo, rat; conditions: for Concentration in rat plasma: 150 mg/kg twice daily oral gavage, individual rats 1-4, rat 2 atypical and excluded
Procedure: as §2, §3

[5] = In vitro metabolic stability, mouse liver microsomes; type: in vitro ADME
Procedure: as §1

[6] = test system: neonatal rat cardiac fibroblasts (NCF); assay: NCF cell viability (MTT assay); type: cell-based; conditions: 25 μM concentration
Procedure: Measurement of NCF cell viability was carried out using a published method with the 3-(4,5-dimethylthiazol-2-yl)-2,5-diphenyltetraxolium bromide (MTT) assay.

p38α MAPK = p38α MAPK (Homo sapiens (Human), UniProt Q16539); assay: Radioactive (33P-labelled ATP) filter binding assay of p38α MAPK activity; type: biochemical
Sequence of p38α MAPK (Q16539 whole entry): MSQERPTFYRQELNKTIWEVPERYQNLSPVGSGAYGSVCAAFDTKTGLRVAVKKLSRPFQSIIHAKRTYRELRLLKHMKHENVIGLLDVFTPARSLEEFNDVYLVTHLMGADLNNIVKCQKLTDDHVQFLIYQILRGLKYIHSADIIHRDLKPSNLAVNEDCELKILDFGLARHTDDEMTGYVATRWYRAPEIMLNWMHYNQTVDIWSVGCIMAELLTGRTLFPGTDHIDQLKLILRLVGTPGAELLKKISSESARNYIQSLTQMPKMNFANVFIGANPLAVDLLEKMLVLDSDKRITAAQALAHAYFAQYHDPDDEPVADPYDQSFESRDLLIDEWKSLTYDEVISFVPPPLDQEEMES
Procedure: (§4) A number of compounds were also assessed for the inhibition of p38α MAPK activity (www.kinase-screen.mrc.ac.uk) in which a radioactive (^33P-labelled ATP) filter binding assay was used to directly measure phosphate incorporation. Table 1 summarises the binding affinities of the synthesised compounds to both forms of the enzyme as well as the inhibitory activities against p38α MAPK. By way of enabling a comparison with a non-thiophene compound the biological testing was also carried out for known inhibitor RWJ67657, shown in table 1.

[7] = molecular target: inactive non-phosphorylated p38α MAPK (Homo sapiens (Human), UniProt Q16539); assay: Fluorescence polarisation (FP) binding assay, inactive enzyme
Sequence of inactive non-phosphorylated p38α MAPK (Q16539 whole entry): as above
Procedure: as §4
(§5) FP signals were measured with a PHERAstar microplate reader (BMG Labtech) using black, low-binding half-area 96 well plates (Corning). Each binding data point was carried out in duplicate or triplicate. Data were recorded in millipolarisation (mP) units and measured at an excitation wavelength of 485 nm and an emission wavelength of 520 nm. Tris(hydroxymethyl)aminomethane (Tris) assay buffer was used in all binding experiments and consisted of 10 mM Tris, […] potassium chloride, and 3.5 mM 3-((3-cholamidopropyl)dimethylammonium)-1-propanesulfonate (Chaps) at pH 8.0.
(§6) Test compounds were prepared from dimethylsulfoxide stocks (10 mM). […] Plates were incubated at room temperature for 1 hour and FP signals were recorded. For binding experiments to active p38α MAPK, the FP signals were recorded after 2 hours incubation at room temperature. Data is represented as mean±SEM from two to three independent experiments.

[8] = molecular target: active phosphorylated p38α MAPK (Homo sapiens (Human), UniProt Q16539); assay: Fluorescence polarisation (FP) binding assay, active enzyme
Sequence of active phosphorylated p38α MAPK (Q16539 whole entry): as above
Procedure: as §4, §5, §6

[9] = molecular target: p38α MAPK activation (phosphorylation) by MKK6 (Homo sapiens (Human), UniProt Q16539); assay: In vitro activation assay (phosphorylation of p38α MAPK by MKK6, western blot); type: biochemical
Sequence of p38α MAPK activation (phosphorylation) by MKK6 (Q16539 whole entry): as above
Procedure: The assay was analysed by immunoblotting using antibodies against pan p38 MAPK and activated (phosphorylated) p38α MAPK. […] The reaction is initiated by the addition of ATP and MKK6 and proceeds for 15 minutes.
The assay was analysed by immunoblotting using antibodies against pan p38 MAPK and phosphorylated p38α MAPK.
The reaction was started by the addition of active MKK6 (5 ng) and ATP (100 μM). After 30 minutes incubation at room temperature, the reaction was stopped with ethylenediaminetetraacetic acid (EDTA) (10 mM). Phosphorylation of p38 MAPK was analysed by Western blotting.
Reaction samples were mixed 1:1 with Laemmli loading buffer, including β-mercaptoethanol (Biorad). Samples were heated at 95° C. for 5 minutes and 80 ng of protein was resolved using sodium dodecyl sulfate polyacrylamide gel electrophoresis (SDS-PAGE) gels (Biorad) at 200 V for 90 minutes. Proteins were transferred (100 V, 1 hour) to a polyvinylidene difluoride (PVDF) membrane (Merck). Membranes were incubated in blocking buffer (5% skim milk in Tris-buffered saline with Tween 20 (TBST), 1 hour, room temperature) and washed in TBST. Membranes were incubated with primary antibodies against total and phosphorylated p38 MAPK (1:1,000, Cell Signaling Technology) overnight at 4° C. Membranes were washed 4×15 minutes in TBST and probed with a secondary anti-mouse antibody at 1:2,000 dilution for 1 hour at room temperature, followed by washing in TBST (4×15 minutes). Signal detection was done with Western Lightning plus-ECL enhanced chemiluminescent substrate (Perkin Elmer) with the ChemiDoc Imaging System (BioRad).

[10] = NADPH-dependent, read-out: Apparent Degradation half-life
[11] = read-out: In vitro CLint (μL/min/mg protein)
[12] = 150 mg/kg twice daily oral gavage
[13] = Table 1, average of two experiments, read-out: IC50 (μM, mean)
[14] = read-out: IC50 (inhibitory activity against p38α MAPK)
[15] = Table 1, read-out: Ki (μM, mean ± SEM) inactive p38α
[16] = Table 6, read-out: Ki ± SEM (μM) to inactive p38α
[17] = Table 1, read-out: Ki (μM, mean ± SEM) active p38α
[18] = Table 6, read-out: Ki ± SEM (μM) to active p38α
[19] = Table 5, read-out: Ki ± SEM (μM) to inactive p38α MAPK
[20] = Table 5, read-out: Ki ± SEM (μM) to active p38α MAPK
[21] = read-out: Ki to active p38α MAPK

Compound: OCCC#Cc1cc(-c2ccncc2)c(-c2ccc(F)cc2)s1 [Compound 4.5, 4-(5-(4-Fluorophenyl)-4-(pyridin-4-yl)thiophen-2-yl)but-3-yn-1-ol]
- Microsome predicted EH [1]: 0.78
- half-life [1, 10]: 16 min
- microsomal CLint [1, 11]: 110 µL/min/mg
- average body weight compared to vehicle group [2, 12]: no difference in the average body weight compared to the vehicle group
- full blood, haemoglobin, haemocrit, red cell parameters and liver function, treated vs vehicle [2, 12]: No differences were observed between treated and vehicle groups
- liver function [2, 12]: no changes to liverfunction
- mass of the spleen [2, 12]: loss in the mass of the spleen
- weights of the kidneys, heart and liver [2, 12]: the same as the vehicle group
- tolerability in rats ([2]; 300 mg/kg/day): well tolerated
- Microsome predicted EH [3]: 0.58
- half-life [3, 10]: 71 min
- microsomal CLint [3, 11]: 24 µL/min/mg
- Concentration in rat plasma ([4]; 1 hour post first dose): 1357 nM and 0.9 nM and 325 nM and 327 nM
- Concentration in rat plasma ([4]; 12 hours post first dose): 8 nM and 7 nM and 147 nM and 5 nM
- Concentration in rat plasma ([4]; 7 day trough): 5 nM and 424 nM and 58 nM and 6 nM
- Concentration in rat plasma ([4]; 14 day trough): 7 nM and 105 nM and 32 nM and 14 nM
- peak plasma levels relative to the enzyme IC50 value ([4]; intake of 300 mg/kg/day, rat): two to nine times higher
- Microsome predicted EH [5]: 0.89
- half-life [5, 10]: 9 min
- microsomal CLint [5, 11]: 184 µL/min/mg
- NCF cell viability [6]: no affect on NCF cell viability

Compound: OC(CCc1ccccc1)c1csc(-c2ccc(F)cc2)c1-c1ccncc1 (stereo not shown) [Compound 4.17, 1-(5-(4-Fluorophenyl)-4-(pyridin-4-yl)thiophen-3-yl)-3-phenylpropan-1-ol]
- IC50 (p38α MAPK; [13]): 0.26 µM
- IC50 (p38α MAPK; Table 6, read-out: IC50 (mean)): 0.26 µM
- IC50 (p38α MAPK; [14]): 0.26 µM
- Ki [7, 15]: 1.9 ± 0.3 µM
- Ki [7, 16]: 1.9 ± 0.3 µM
- Ki [8, 17]: 0.99 ± 0.09 µM
- Ki [8, 18]: 0.99 ± 0.09 µM

Compound: Fc1ccc(-c2scc(CCCc3ccccc3)c2-c2ccncc2)cc1 [Compound 4.18, 4-(2-(4-Fluorophenyl)-4-(3-phenylpropyl)thiophen-3-yl)pyridine]
- IC50 (p38α MAPK; [13]): 0.27 µM
- IC50 (p38α MAPK; Table 6, read-out: IC50 (mean)): 0.27 µM
- IC50 (p38α MAPK; [14]): 0.27 µM
- Ki [7, 15]: 1.5 ± 0.5 µM
- Ki [7, 16]: 1.5 ± 0.5 µM
- Ki [8, 17]: 0.72 ± 0.03 µM
- Ki [8, 18]: 0.72 ± 0.03 µM

Compound: OCCCCc1cc(-c2ccncc2)c(-c2ccc(F)cc2)s1 [Compound 5.9, 4-(5-(4-Fluorophenyl)-4-(pyridin-4-yl)thiophen-2-yl)butan-1-ol]
- inhibition of p38α MAPK activation (phosphorylation) ([9]; 10 μM concentration): inhibition of p38α MAPK activation
- Ki [7, 19]: 0.98 ± 0.02 µM
- Ki [7, 16]: 0.98 ± 0.02 µM
- Ki [8, 20]: 0.25 ± 0.04 µM
- Ki [8, 18]: 0.25 ± 0.04 µM
- Ki [8, 21]: 0.25 µM

Compound: O=C(CCCO)c1cc(-c2ccncc2)c(-c2ccc(F)cc2)s1 [Compound 5.10, 1-(5-(4-Fluorophenyl)-4-(pyridin-4-yl)thiophen-2-yl)-4-hydroxybutan-1-one]
- inhibition of p38α MAPK activation (phosphorylation) ([9]; 10 μM concentration): inhibition of p38α MAPK activation
- Ki [7, 19]: 2.7 ± 0.3 µM
- Ki [7, 16]: 2.7 ± 0.3 µM
- Ki [8, 20]: 0.67 ± 0.03 µM
- Ki [8, 18]: 0.67 ± 0.03 µM
- Ki [8, 21]: 0.67 µM

Compound: O=C(c1ccccc1)c1cc(-c2ccncc2)c(-c2ccc(F)cc2)s1 [Compound 5.16, (5-(4-Fluorophenyl)-4-(pyridin-4-yl)thiophen-2-yl) (phenyl)methanone]
- inhibition of p38α MAPK activation (phosphorylation) ([9]; 10 μM concentration): inhibition of p38α MAPK activation
- Ki [7, 19]: 5 ± 2 µM
- Ki [7, 16]: 5 ± 2 µM
- Ki [8, 20]: 2.8 ± 0.1 µM
- Ki [8, 18]: 2.8 ± 0.1 µM

Compound: Nc1nc(F)c(F)c(-c2cc(-c3ccncc3)c(-c3ccc(F)cc3)s2)c1F [Compound 5.20, 3,5,6-Trifluoro-4-(5-(4-fluorophenyl)-4-(pyridin-4-yl)thiophen-2-yl)pyridin-2-amine]
- inhibition of p38α MAPK activation (phosphorylation) ([9]; 10 μM concentration): inhibition of p38α MAPK activation
- Ki [7, 19]: 0.66 ± 0.06 µM
- Ki [7, 16]: 0.66 ± 0.06 µM
- Ki [8, 20]: 0.21 ± 0.01 µM
- Ki [8, 18]: 0.21 ± 0.01 µM
- Ki [8, 21]: 0.2 µM

Compound: Nc1nc(N)c(F)c(-c2cc(-c3ccncc3)c(-c3ccc(F)cc3)s2)c1F [Compound 5.21, 3,5-Difluoro-4-(5-(4-fluorophenyl)-4-(pyridin-4-yl)thiophen-2-yl)pyridine-2,6-diamine]
- inhibition of p38α MAPK activation (phosphorylation) ([9]; 1 μM concentration): significant inhibition
- inhibition of p38α MAPK activation (phosphorylation) ([9]; 10 μM concentration): inhibition of p38α MAPK activation
- Ki [7, 19]: 0.47 ± 0.01 µM
- Ki [7, 16]: 0.47 ± 0.01 µM
- Ki ([7]; read-out: Ki to inactive non-phosphorylated p38α MAPK): 0.47 µM
- Ki [8, 20]: 0.16 ± 0.02 µM
- Ki [8, 18]: 0.16 ± 0.02 µM
- Ki [8, 21]: 0.16 µM

Compound: OCCC#Cc1nc(-c2ccc(F)cc2)c(-c2ccncc2)n1CCCc1ccccc1 [RWJ67657, reference compound]
- inhibition of p38α MAPK activation (phosphorylation) ([9]; 10 μM concentration): inhibition of p38α MAPK activation
- Ki [7, 15]: 0.21 ± 0.04 µM
- Ki [7, 19]: 0.21 ± 0.04 µM
- Ki [7, 16]: 0.21 ± 0.04 µM
- Ki [8, 17]: 0.013 ± 0.006 µM
- Ki [8, 20]: 0.013 ± 0.006 µM
- Ki [8, 18]: 0.013 ± 0.006 µM
